Laboratory results taken from the NIST ThermoML archive (doi:10.1016/j.jct.2009.07.014).

Assay: excess molar enthalpy (molar enthalpy of mixing); xn = mol fraction of the nth substance listed
Conditions: 101.3 kPa, Liquid, Flow calorimetry

CCCCO [butan-1-ol] + CCCCCCC
excess molar enthalpy [kJ/mol]
Conditions	298.15 K	313.15 K
x2 = 0.0502	0.0736	0.103
x2 = 0.0999	0.147	–
x2 = 0.1	–	0.205
x2 = 0.1504	0.217	–
x2 = 0.1505	–	0.304
x2 = 0.2	0.282	–
x2 = 0.2001	–	0.395
x2 = 0.2498	0.344	–
x2 = 0.2499	–	0.48
x2 = 0.2998	0.402	–
x2 = 0.2999	–	0.56
x2 = 0.3497	0.453	–
x2 = 0.3498	–	0.632
x2 = 0.4004	0.499	0.697
x2 = 0.4496	0.54	0.751
x2 = 0.5001	0.575	–
x2 = 0.5002	–	0.795
x2 = 0.5498	0.601	–
x2 = 0.5499	–	0.827
x2 = 0.5996	0.618	–
x2 = 0.5997	–	0.847
x2 = 0.6504	0.623	–
x2 = 0.6505	–	0.854
x2 = 0.6999	0.617	0.847
x2 = 0.7501	0.598	0.825
x2 = 0.7998	0.567	0.789
x2 = 0.8502	0.522	0.733
x2 = 0.8997	–	0.65
x2 = 0.8998	0.459	–
x2 = 0.9497	0.361	0.508
